Source: the supplement of paper PMC10307832

Assays:
Test in all cases: relative viability (nuclei count vs DMSO), 5 days (fraction); higher = more cells survive
KN-93 + Foretinib = compound: CN(C/C=C/C1=CC=C(C=C1)Cl)CC2=CC=CC=C2N(CCO)S(=O)(=O)C3=CC=C(C=C3)OC [KN-93] + COc1cc2c(Oc3ccc(NC(=O)C4(C(=O)Nc5ccc(F)cc5)CC4)cc3F)ccnc2cc1OCCCN1CCOCC1 [Foretinib] (partner 0.25 µM)
In short: (§1)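 After 5 days of treatment, lung cancer cells in 1536-well plates were fixed and stained in a single step (final 0.05% Triton X-100, 1% formaldehyde, 1 ug/ml Hoechst) and their nuclei counted on 4× images. Treatment had been applied by pin tool the day after seeding as one drug alone or as a fixed anchor-drug dose with five library-drug doses (not always all listed) in √10 steps. Relative viability is the nuclei count of treated wells divided by that of vehicle wells, and values are medians of duplicate plates.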

KN-93 + Luminespib = compound: CN(C/C=C/C1=CC=C(C=C1)Cl)CC2=CC=CC=C2N(CCO)S(=O)(=O)C3=CC=C(C=C3)OC [KN-93] + CCNC(=O)c1noc(-c2cc(C(C)C)c(O)cc2O)c1-c1ccc(CN2CCOCC2)cc1 [Luminespib] (partner 0.01 µM)
In short: as §1

KN-93 + Vorinostat = compound: CN(C/C=C/C1=CC=C(C=C1)Cl)CC2=CC=CC=C2N(CCO)S(=O)(=O)C3=CC=C(C=C3)OC [KN-93] + O=C(CCCCCCC(=O)Nc1ccccc1)NO [Vorinostat] (partner 1 µM)
In short: as §1

KN-93 + Tozasertib = compound: CN(C/C=C/C1=CC=C(C=C1)Cl)CC2=CC=CC=C2N(CCO)S(=O)(=O)C3=CC=C(C=C3)OC [KN-93] + Cc1cc(Nc2cc(N3CCN(C)CC3)nc(Sc3ccc(NC(=O)C4CC4)cc3)n2)n[nH]1 [Tozasertib] (partner 0.1 µM)
In short: as §1

KN-93 + Bortezomib = compound: CN(C/C=C/C1=CC=C(C=C1)Cl)CC2=CC=CC=C2N(CCO)S(=O)(=O)C3=CC=C(C=C3)OC [KN-93] + CC(C)C[C@H](NC(=O)[C@H](Cc1ccccc1)NC(=O)c1cnccn1)B(O)O [Bortezomib] (partner 0.002 µM)
In short: as §1

| Cell Line | relative viability (KN-93 + Foretinib; first compound 0.08 µM) | relative viability (KN-93 + Foretinib; first compound 0.253 µM) | relative viability (KN-93 + Foretinib; first compound 2.53 µM) | relative viability (KN-93 + Foretinib; first compound 8 µM) | relative viability (KN-93 + Luminespib; first compound 0.08 µM) | relative viability (KN-93 + Luminespib; first compound 0.253 µM) | relative viability (KN-93 + Luminespib; first compound 2.53 µM) | relative viability (KN-93 + Luminespib; first compound 8 µM) | relative viability (KN-93 + Vorinostat; first compound 0.08 µM) | relative viability (KN-93 + Vorinostat; first compound 0.253 µM) | relative viability (KN-93 + Vorinostat; first compound 2.53 µM) | relative viability (KN-93 + Vorinostat; first compound 8 µM) | relative viability (KN-93 + Tozasertib; first compound 0.08 µM) | relative viability (KN-93 + Tozasertib; first compound 0.253 µM) | relative viability (KN-93 + Tozasertib; first compound 2.53 µM) | relative viability (KN-93 + Tozasertib; first compound 8 µM) | relative viability (KN-93 + Bortezomib; first compound 0.08 µM) | relative viability (KN-93 + Bortezomib; first compound 0.253 µM) | relative viability (KN-93 + Bortezomib; first compound 2.53 µM) | relative viability (KN-93 + Bortezomib; first compound 8 µM) |
| --- | --- | --- | --- | --- | --- | --- | --- | --- | --- | --- | --- | --- | --- | --- | --- | --- | --- | --- | --- | --- |
| NCI-H2405 | 1.05 | 0.995 | 1.01 | 0.75 | 0.752 | 0.76 | 0.778 | 0.446 | 1.02 | 1.08 | 0.949 | 0.691 | 0.799 | 0.776 | 0.733 | 0.533 | 1.01 | 0.978 | 1.09 | 0.728 |
| NCI-H3122 | 1.05 | 1.13 | 1.11 | 0.912 | 0.0763 | 0.0918 | 0.0989 | 0.0487 | 0.595 | 1.12 | 1.08 | 0.66 | 0.385 | 0.39 | 0.469 | 0.389 | 1.06 | 1.07 | 1.13 | 1.03 |
| PC-3 [JPC-3] | 0.98 | 1.14 | 1 | 0.784 | 0.572 | 0.838 | 0.632 | 0.577 | 0.794 | 0.765 | 0.756 | 0.637 | 0.905 | 0.957 | 0.922 | 0.813 | 0.724 | 0.97 | 0.982 | 0.579 |
| PC-14 | 0.797 | 0.988 | 1.12 | 1.01 | 0.151 | 0.154 | 0.13 | 0.138 | 0.623 | 0.753 | 0.649 | 0.625 | 0.642 | 0.544 | 0.583 | 0.21 | 0.686 | 0.899 | 0.933 | 0.734 |
| RERF-LC-KJ | 0.791 | 0.778 | 1.05 | 0.833 | 1.21 | 1.51 | 1.16 | 0.559 | 0.785 | 0.643 | 0.696 | 0.577 | 0.448 | 0.477 | 0.405 | 0.271 | 1.07 | 1.2 | 1.09 | 0.928 |
| SK-LU-1 | 0.768 | 1.05 | 0.938 | 0.48 | 0.244 | 0.209 | 0.199 | 0.183 | 0.626 | 0.865 | 0.781 | 0.473 | 0.337 | 0.349 | 0.322 | 0.278 | 1.58 | 1.02 | 1.59 | 0.591 |
| SW 1573 | 0.863 | 0.91 | 0.933 | 1 | 0.178 | 0.303 | 0.187 | 0.144 | 0.685 | 0.916 | 0.746 | 0.569 | 0.177 | 0.22 | 0.191 | 0.19 | 1.04 | 1.23 | 0.973 | 0.763 |
| UMC-11 | 0.97 | 1.28 | 1.23 | 0.452 | 1.01 | 1.33 | 1.32 | 0.346 | 0.364 | 0.35 | 0.359 | 0.267 | 0.178 | 0.199 | 0.188 | 0.203 | – | 0.919 | 0.799 | 0.197 |
